As usually defined, the IC50 is the concentration that inhibits the measured activity by half. One may read the viability, T/C as the ratio of treated to control.

This passage reports IC50 and viability, T/C results from PubChem BioAssay AID2060903 (Molecular Pharmacology Branch, DTP, NCI, 2025).

Where “and” joins values, the source holds several entries; their conditions need not be identical. Equal values may be shown once.

The test system of the experiment is 377384-186-R-J1-PDC complex spheroid viability. The experiment in a line: Anticancer human tumor 377384-186-R-J1-PDC patient-derived pancreatic carcinoma cell line growth inhibition [RAS]. The conditions noted are these: for viability, T/C: stronger effect = lower value. Put shortly: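 Tumour cells grown as complex spheroids with HUVEC endothelial cells and mesenchymal stem cells, treated with RAS pathway inhibitor combinations. Each agent spans half-log steps from near clinical Cmax, or 10 microM where Cmax is unknown.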

The mark [1] stands for this setting: curve of first compound, second compound 0.000949 µM.
[2] abbreviates: curve of first compound, second compound 0.003 µM.
[3] abbreviates: curve of first compound, second compound 0.00949 µM.
The mark [4] stands for this setting: curve of first compound, second compound 0.03 µM.
[5] abbreviates: curve of first compound, second compound 0.0949 µM.
Where [6] appears, read: curve of first compound, second compound 0.3 µM.
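Note: spheroids exposed to compounds for seven days before readout.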

With `CCc1c2c(nc3ccc(O)cc13)-c1cc3c(c(=O)n1C2)COC(=O)[C@]3(O)CC` + CCn1c(-c2cccnc2C(C)OC)c2c3cc(ccc31)N1CCOC(CC(NC(=O)C(C(C)C)N(C)C(=O)C3(F)CCN(C(=O)C#CC(C)(C)N(C)C)CC3)C(=O)N3CCCC(N3)C(=O)OCC(C)(C)C2)C1, the half-maximal inhibitory concentration (IC50) is 0.00242 µM under setting [1]; 0.002 µM under setting [2]; 0.002 µM under setting [3]; 0.00153 µM under setting [4]; under 0.000949 µM under setting [5]; under 0.000949 µM under setting [6]. Moreover, the viability, T/C is 65.9% (second compound 0.000949 µM, first compound 0.000949 µM); 46.6% (second compound 0.000949 µM, first compound 0.003 µM); 18.3% (second compound 0.000949 µM, first compound 0.00949 µM); 7.36% (second compound 0.000949 µM, first compound 0.03 µM); 3.93% (second compound 0.000949 µM, first compound 0.0949 µM); 1.53% (second compound 0.000949 µM, first compound 0.3 µM). Moreover, the viability, T/C runs as follows: (second compound 0.003 µM, first compound 0.000949 µM) 71.5%; (second compound 0.003 µM, first compound 0.003 µM) 37.9%; (second compound 0.003 µM, first compound 0.00949 µM) 19.8%; (second compound 0.003 µM, first compound 0.03 µM) 6.9%; (second compound 0.003 µM, first compound 0.0949 µM) 3.65%; (second compound 0.003 µM, first compound 0.3 µM) 2.05%. Moreover, the viability, T/C was 75.7% (second compound 0.00949 µM, first compound 0.000949 µM); 35.7% (second compound 0.00949 µM, first compound 0.003 µM); 15.8% (second compound 0.00949 µM, first compound 0.00949 µM); 5.59% (second compound 0.00949 µM, first compound 0.03 µM); 2.54% (second compound 0.00949 µM, first compound 0.0949 µM); 1.72% (second compound 0.00949 µM, first compound 0.3 µM). Besides, the viability, T/C was 61.3% (second compound 0.03 µM, first compound 0.000949 µM); 34.7% (second compound 0.03 µM, first compound 0.003 µM); 14.4% (second compound 0.03 µM, first compound 0.00949 µM); 8.65% (second compound 0.03 µM, first compound 0.03 µM); 3.55% (second compound 0.03 µM, first compound 0.0949 µM); 1.17% (second compound 0.03 µM, first compound 0.3 µM). Moreover, the viability, T/C by setting is: (second compound 0.0949 µM, first compound 0.000949 µM) 49.1%; (second compound 0.0949 µM, first compound 0.003 µM) 34.9%; (second compound 0.0949 µM, first compound 0.00949 µM) 14.8%; (second compound 0.0949 µM, first compound 0.03 µM) 5.24%; (second compound 0.0949 µM, first compound 0.0949 µM) 3.02%; (second compound 0.0949 µM, first compound 0.3 µM) 1.67%. The viability, T/C reads like this: (second compound 0.3 µM, first compound 0.000949 µM) 45.4%; (second compound 0.3 µM, first compound 0.003 µM) 30.3%; (second compound 0.3 µM, first compound 0.00949 µM) 7.93%; (second compound 0.3 µM, first compound 0.03 µM) 4.05%; (second compound 0.3 µM, first compound 0.0949 µM) 2.71%; (second compound 0.3 µM, first compound 0.3 µM) 1.08%.
On to `CC(Nc1ccc2c(c1)OCCn1cc(N3C(=O)OCC3C(F)F)nc1-2)C(N)=O` (stereo not drawn), for which the viability, T/C reads like this: (compound 0.0316 µM) 76% [middle of 4 runs]; (compound 0.1 µM) 63.8% [middle of 4 runs]; (compound 0.316 µM) 55.8% [middle of 4 runs]; (compound 1 µM) 47.9% and 40.3% (2×) and 48.2%; (compound 3.16 µM) 33.7% [middle of 4 runs]; (compound 10 µM) 30.7% [middle of 4 runs]. In addition, where the note is “curve of compound”, the concentration for half-maximal inhibition (IC50) was 476 nM [middle of 4 runs].
Turning to `C=CC(=O)Nc1cc(Nc2nccc(-c3cn(C)c4ccccc34)n2)c(OC)cc1N(C)CCN(C)C`, the viability, T/C by setting is: (compound 0.00316 µM) 95.6% [middle of 4 runs]; (compound 0.01 µM) 97.8% [middle of 4 runs]; (compound 0.0316 µM) 92.6% [middle of 4 runs]; (compound 0.1 µM) 87.7% [middle of 4 runs]; (compound 0.316 µM) 64.9% [middle of 4 runs]; (compound 1 µM) 40.4% [middle of 4 runs]. The IC50 (curve of compound) was 639 nM [middle of 4 runs].
As for `C[C@@H](NC(=O)c1ncnc(N)c1Cl)c1ncc(C(=O)Nc2cc(C(F)(F)F)c(Cl)cn2)s1`, the viability, T/C was 95.1% [middle of 4 runs] (compound 0.0316 µM); 99.2% [middle of 4 runs] (compound 0.1 µM); 117% (2×) and 109% and 132% (compound 1 µM). For the same compound, the IC50 (curve of compound) was over 10 µM.
Take `O=C(c1ccc(F)c(F)c1Nc1ccc(I)cc1F)N1CC(O)([C@@H]2CCCCN2)C1` + CCn1c(-c2cccnc2C(C)OC)c2c3cc(ccc31)N1CCOC(CC(NC(=O)C(C(C)C)N(C)C(=O)C3(F)CCN(C(=O)C#CC(C)(C)N(C)C)CC3)C(=O)N3CCCC(N3)C(=O)OCC(C)(C)C2)C1: the IC50 under setting [1] is 0.0332 µM; the IC50 under setting [2] was found to be 0.0448 µM; the concentration for half-maximal inhibition (IC50) under setting [3] stood at 0.0286 µM; the 50% inhibitory concentration (IC50) under setting [4] came to 0.036 µM; the IC50 under setting [5] turned out to be 0.0299 µM; the IC50 under setting [6] came out at 0.0168 µM. The viability, T/C by setting is: (second compound 0.000949 µM, first compound 0.00316 µM) 87.5%; (second compound 0.000949 µM, first compound 0.01 µM) 85.8%; (second compound 0.000949 µM, first compound 0.0316 µM) 49.2%; (second compound 0.000949 µM, first compound 0.1 µM) 17.4%; (second compound 0.000949 µM, first compound 0.316 µM) 1.96%; (second compound 0.000949 µM, first compound 1 µM) 1.6%. For the same compound, the viability, T/C reads like this: (second compound 0.003 µM, first compound 0.00316 µM) 103%; (second compound 0.003 µM, first compound 0.01 µM) 89.2%; (second compound 0.003 µM, first compound 0.0316 µM) 63.1%; (second compound 0.003 µM, first compound 0.1 µM) 22.7%; (second compound 0.003 µM, first compound 0.316 µM) 2.13%; (second compound 0.003 µM, first compound 1 µM) 0.43%. For the same compound, the viability, T/C was 98.8% (second compound 0.00949 µM, first compound 0.00316 µM); 75% (second compound 0.00949 µM, first compound 0.01 µM); 50.3% (second compound 0.00949 µM, first compound 0.0316 µM); 19.1% (second compound 0.00949 µM, first compound 0.1 µM); 1.75% (second compound 0.00949 µM, first compound 0.316 µM); 0.87% (second compound 0.00949 µM, first compound 1 µM). For the same compound, the viability, T/C is, setting by setting: (second compound 0.03 µM, first compound 0.00316 µM) 96.2%; (second compound 0.03 µM, first compound 0.01 µM) 77.8%; (second compound 0.03 µM, first compound 0.0316 µM) 57.3%; (second compound 0.03 µM, first compound 0.1 µM) 18.9%; (second compound 0.03 µM, first compound 0.316 µM) 4.23%; (second compound 0.03 µM, first compound 1 µM) 0.57%. In addition, the viability, T/C is, setting by setting: (second compound 0.0949 µM, first compound 0.00316 µM) 85.5%; (second compound 0.0949 µM, first compound 0.01 µM) 77.8%; (second compound 0.0949 µM, first compound 0.0316 µM) 47.5%; (second compound 0.0949 µM, first compound 0.1 µM) 17.7%; (second compound 0.0949 µM, first compound 0.316 µM) 1.32%; (second compound 0.0949 µM, first compound 1 µM) 0.36%. In addition, the viability, T/C (second compound 0.3 µM, first compound 0.00316 µM) is 77.1%; the viability, T/C (second compound 0.3 µM, first compound 0.01 µM) is 60.6%; the viability, T/C (second compound 0.3 µM, first compound 0.0316 µM) was 36.9%; the viability, T/C (second compound 0.3 µM, first compound 0.1 µM) is 10.7%; the viability, T/C (second compound 0.3 µM, first compound 0.316 µM) is 0.96%; the viability, T/C (second compound 0.3 µM, first compound 1 µM) was 0.43%.
For `Nc1ccn(C2OC(CO)C(O)C2(F)F)c(=O)n1` (stereo not drawn), the viability, T/C (compound 0.01 µM) is 36.6% [middle of 4 runs]; the viability, T/C (compound 0.0316 µM) was 21.4% and 7.24% and 10.1% (2×); the viability, T/C (compound 0.1 µM) was 5.39% [middle of 4 runs]; the viability, T/C (compound 0.316 µM) is 4.06% [middle of 4 runs]; the viability, T/C (compound 1 µM) was 3.19% [middle of 4 runs]. The IC50 (curve of compound) was 6.44 nM [middle of 4 runs].
